Results reported in ChEMBL document CHEMBL3808337, “Rapid Discovery of Pyrido[3,4-d]pyrimidine Inhibitors of Monopolar Spindle Kinase 1 (MPS1) Using a Structure-Based Hybridization Approach” (J Med Chem, 2016).

Key:
Cytochrome P450 2C9 = Cytochrome P450 2C9 (Homo sapiens, UniProt P11712); assay: Inhibition of CYP2C9 (unknown origin); format: ADME
Cytochrome P450 3A4 = Cytochrome P450 3A4 (Homo sapiens, UniProt P08684)
Cytochrome P450 2C19 = Cytochrome P450 2C19 (Homo sapiens, UniProt P33261); assay: Inhibition of CYP2C19 (unknown origin); format: ADME
Cytochrome P450 2D6 = Cytochrome P450 2D6 (Homo sapiens, UniProt P10635)
Cytochrome P450 1A2 = target: T1, Cytochrome P450 1A2 (Homo sapiens, UniProt P05177); assay: Inhibition of CYP1A2 (unknown origin); format: ADME
T1 sequence (P05177 whole entry): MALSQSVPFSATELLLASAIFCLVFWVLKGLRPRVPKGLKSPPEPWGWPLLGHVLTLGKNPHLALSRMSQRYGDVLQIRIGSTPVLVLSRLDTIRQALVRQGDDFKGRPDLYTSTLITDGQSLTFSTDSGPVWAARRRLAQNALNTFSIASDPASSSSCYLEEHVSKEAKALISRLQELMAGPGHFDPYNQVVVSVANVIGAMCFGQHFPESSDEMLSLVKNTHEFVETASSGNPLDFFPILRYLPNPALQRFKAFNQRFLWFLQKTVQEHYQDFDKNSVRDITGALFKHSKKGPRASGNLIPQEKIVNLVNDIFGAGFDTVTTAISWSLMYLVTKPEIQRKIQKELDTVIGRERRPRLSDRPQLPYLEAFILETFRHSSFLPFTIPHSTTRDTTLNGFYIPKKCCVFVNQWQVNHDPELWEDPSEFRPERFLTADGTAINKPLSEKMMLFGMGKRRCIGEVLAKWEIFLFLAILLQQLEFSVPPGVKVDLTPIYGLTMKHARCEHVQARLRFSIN

CDK2/Cyclin A2 = CDK2/Cyclin A2 (Homo sapiens, UniProt P24941)
[1] = Drug metabolism in CD1 mouse liver microsomes at 10 uM after 30 mins by LCMS analysis; format: ADME; details: read-out: Drug metabolism
[2] = Antiproliferative activity against human HCT116 cells assessed as cell viability after 72 hrs by MTT assay; format: functional; details: HCT-116, 72 h

Chain of Cytochrome P450 2C9 (P11712 whole entry): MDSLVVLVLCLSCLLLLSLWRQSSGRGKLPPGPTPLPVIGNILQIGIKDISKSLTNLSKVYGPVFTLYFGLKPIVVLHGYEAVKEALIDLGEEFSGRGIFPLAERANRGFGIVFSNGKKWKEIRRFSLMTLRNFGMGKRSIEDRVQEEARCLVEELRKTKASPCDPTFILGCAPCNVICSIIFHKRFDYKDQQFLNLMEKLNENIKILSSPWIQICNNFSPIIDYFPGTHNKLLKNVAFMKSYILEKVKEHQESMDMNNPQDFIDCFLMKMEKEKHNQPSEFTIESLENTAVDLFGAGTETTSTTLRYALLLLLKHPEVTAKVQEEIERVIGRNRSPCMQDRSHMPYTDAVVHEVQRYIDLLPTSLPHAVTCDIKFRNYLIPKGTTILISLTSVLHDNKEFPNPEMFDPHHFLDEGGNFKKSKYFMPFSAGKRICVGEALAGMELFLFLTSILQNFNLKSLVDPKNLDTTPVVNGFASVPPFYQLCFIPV
Chain of Cytochrome P450 2C19 (P33261 whole entry): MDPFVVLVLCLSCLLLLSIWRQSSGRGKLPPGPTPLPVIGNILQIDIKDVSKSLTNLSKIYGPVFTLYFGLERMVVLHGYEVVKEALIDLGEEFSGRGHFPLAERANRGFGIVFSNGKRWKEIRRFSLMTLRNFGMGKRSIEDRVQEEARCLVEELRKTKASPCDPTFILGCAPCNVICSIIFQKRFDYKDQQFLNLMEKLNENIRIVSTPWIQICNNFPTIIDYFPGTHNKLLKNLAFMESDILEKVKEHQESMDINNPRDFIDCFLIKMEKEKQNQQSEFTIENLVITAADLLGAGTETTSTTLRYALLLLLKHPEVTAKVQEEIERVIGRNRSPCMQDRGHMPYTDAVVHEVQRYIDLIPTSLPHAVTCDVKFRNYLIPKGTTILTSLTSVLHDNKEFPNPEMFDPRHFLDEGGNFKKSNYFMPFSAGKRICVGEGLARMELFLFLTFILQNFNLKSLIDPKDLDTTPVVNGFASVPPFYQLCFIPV
Chain of Cytochrome P450 3A4 (P08684 whole entry): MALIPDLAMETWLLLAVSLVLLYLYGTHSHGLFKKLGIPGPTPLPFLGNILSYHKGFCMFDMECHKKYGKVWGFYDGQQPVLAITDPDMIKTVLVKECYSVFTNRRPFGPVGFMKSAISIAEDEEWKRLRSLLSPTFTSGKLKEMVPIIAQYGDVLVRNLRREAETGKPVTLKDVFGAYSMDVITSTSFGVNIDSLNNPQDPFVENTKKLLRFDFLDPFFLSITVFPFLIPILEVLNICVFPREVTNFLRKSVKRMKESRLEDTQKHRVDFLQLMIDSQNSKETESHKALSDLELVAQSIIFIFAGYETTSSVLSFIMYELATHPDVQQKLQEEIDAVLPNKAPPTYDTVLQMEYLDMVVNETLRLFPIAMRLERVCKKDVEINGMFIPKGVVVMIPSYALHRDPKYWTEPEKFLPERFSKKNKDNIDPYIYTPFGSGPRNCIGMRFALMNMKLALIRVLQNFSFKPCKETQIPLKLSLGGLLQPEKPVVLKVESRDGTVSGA
Chain of Cytochrome P450 2D6 (P10635 whole entry): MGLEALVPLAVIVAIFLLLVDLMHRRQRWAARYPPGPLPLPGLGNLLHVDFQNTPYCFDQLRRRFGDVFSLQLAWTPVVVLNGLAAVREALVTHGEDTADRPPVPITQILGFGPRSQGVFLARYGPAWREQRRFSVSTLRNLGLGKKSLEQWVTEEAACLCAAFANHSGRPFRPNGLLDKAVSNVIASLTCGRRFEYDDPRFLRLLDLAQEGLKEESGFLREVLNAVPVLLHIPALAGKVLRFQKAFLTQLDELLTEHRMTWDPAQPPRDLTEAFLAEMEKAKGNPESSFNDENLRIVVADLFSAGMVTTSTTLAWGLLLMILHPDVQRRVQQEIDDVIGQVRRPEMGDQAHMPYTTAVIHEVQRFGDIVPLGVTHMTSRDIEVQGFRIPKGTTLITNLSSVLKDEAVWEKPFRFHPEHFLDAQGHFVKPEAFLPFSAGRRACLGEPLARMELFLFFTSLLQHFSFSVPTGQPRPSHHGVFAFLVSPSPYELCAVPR

Cn1cc(-c2cc3cnc(Nc4ccc(-c5cncn5C)cc4Cl)cc3n2C(=O)OC(C)(C)C)cn1
IC50 (Cytochrome P450 2C9): < 1000 nM | IC50 (Cytochrome P450 3A4): < 1000 nM | IC50 (Cytochrome P450 2C19): < 1000 nM | IC50 (Cytochrome P450 2D6): < 1000 nM | IC50 (Cytochrome P450 1A2): < 1000 nM

CCOc1cc(-c2cnn(C)c2)ccc1Nc1ncc2ccnc(-c3cnn(C)c3)c2n1
IC50 (CDK2/Cyclin A2): > 45000 nM | metabolised at 0.5 h, 10 µM [1]: 45%

COc1cc(-c2cnn(C)c2)ccc1Nc1ncc2ccnc(NC3CCCCC3)c2n1
IC50 (CDK2/Cyclin A2): 190 nM | Ki (CDK2/Cyclin A2): 100 nM | GI50 [2]: 120 nM | metabolised at 0.5 h, 10 µM [1]: 22%

COc1cc(-c2cnn(C)c2)ccc1Nc1ncc2ccnc(C3CC3)c2n1
metabolised at 0.5 h, 10 µM [1]: 51%

Cc1cc(-c2cnn(C)c2)ccc1Nc1ncc2ccnc(-c3cnn(C)c3)c2n1
metabolised at 0.5 h, 10 µM [1]: 63%

COc1cc(-c2cnn(C)c2)ccc1Nc1ncc2ccnc(-c3ccccc3)c2n1
metabolised at 0.5 h, 10 µM [1]: 40%

COc1cc(-c2cnn(C)c2)ccc1Nc1ncc2ccnc(N[C@H](C)C(C)(C)C)c2n1
GI50 [2]: 220 nM | metabolised at 0.5 h, 10 µM [1]: 25%

COc1cc(-c2cnn(C)c2)ccc1Nc1ncc2ccnc(N3CCCC3)c2n1
GI50 [2]: 470 nM | metabolised at 0.5 h, 10 µM [1]: 64%

COc1cc(-c2cnn(C)c2)ccc1Nc1ncc2ccnc(NCC(C)(C)C)c2n1
GI50 [2]: 340 nM | metabolised at 0.5 h, 10 µM [1]: 31%
